According to the NIST ThermoML archive (doi:10.1016/j.jct.2006.03.018):

Tests used:
[1] = xn = mol fraction of the nth substance listed; conditions: 101 kPa, Liquid
[2] = refractive index (Na D-line) (dimensionless); xn = mol fraction of the nth substance listed; conditions: 101 kPa, Liquid

CC(C)CCO [3-methylbutan-1-ol] + COc1ccccc1
Conditions | mass density, [1] [kg/m3] | refractive index, [2] | speed of sound, [1] [m/s] | viscosity, [1] [mPa·s]
298.15 K, x2 = 0 | 807.2 | 1.405 | 1241 | 3.835
298.15 K, x2 = 0.103 | 825.87 | 1.4159 | 1258 | 2.766
298.15 K, x2 = 0.2001 | 843.32 | 1.4269 | 1275 | 2.153
298.15 K, x2 = 0.3022 | 861.74 | 1.4378 | 1292 | 1.736
298.15 K, x2 = 0.3995 | 879.31 | 1.4487 | 1309 | 1.43
298.15 K, x2 = 0.4944 | 896.5 | 1.4579 | 1327 | 1.254
298.15 K, x2 = 0.5995 | 915.66 | 1.4688 | 1344 | 1.136
298.15 K, x2 = 0.6915 | 932.47 | 1.4797 | 1361 | 1.046
298.15 K, x2 = 0.8022 | 952.8 | 1.4906 | 1378 | 1.005
298.15 K, x2 = 0.9044 | 971.6 | 1.5015 | 1394 | 0.956
303.15 K, x2 = 0 | 803.45 | 1.403 | – | 3.261
303.15 K, x2 = 0.103 | 821.94 | 1.4138 | – | 2.408
303.15 K, x2 = 0.2001 | 839.25 | 1.4247 | – | 1.885
303.15 K, x2 = 0.3022 | 857.55 | 1.4355 | – | 1.544
303.15 K, x2 = 0.3995 | 875.01 | 1.4463 | – | 1.253
303.15 K, x2 = 0.4944 | 892.11 | 1.4575 | – | 1.135
303.15 K, x2 = 0.5995 | 911.16 | 1.468 | – | 1.03
303.15 K, x2 = 0.6915 | 929.01 | 1.4788 | – | 0.956
303.15 K, x2 = 0.8022 | 948.15 | 1.4896 | – | 0.938
303.15 K, x2 = 0.9044 | 966.9 | 1.5005 | – | 0.881
308.15 K, x2 = 0 | 791.86 | – | – | –
308.15 K, x2 = 0.1036 | 808.48 | 1.3966 | – | 1.242
308.15 K, x2 = 0.2003 | 827.18 | 1.4129 | – | 1.078
308.15 K, x2 = 0.3055 | 848.11 | 1.4287 | – | 0.961
308.15 K, x2 = 0.4053 | 867.53 | 1.4426 | – | 0.879
308.15 K, x2 = 0.5096 | 888.55 | 1.4542 | – | 0.838
308.15 K, x2 = 0.6015 | 906.1 | 1.4673 | – | 0.821
308.15 K, x2 = 0.7071 | 924.94 | 1.4793 | – | 0.802
308.15 K, x2 = 0.8023 | 942.78 | 1.4897 | – | 0.795
308.15 K, x2 = 0.9044 | 960.74 | 1.499 | – | 0.792

COc1ccccc1 [anisole] + CC(C)CCO
x1 = 1
Conditions | mass density, 298.15 K [kg/m3] | mass density, 303.15 K [kg/m3] | mass density, 308.15 K [kg/m3] | refractive index, 298.15 K | refractive index, 303.15 K | refractive index, 308.15 K | speed of sound, 298.15 K [m/s] | viscosity, 298.15 K [mPa·s] | viscosity, 303.15 K [mPa·s] | viscosity, 308.15 K [mPa·s]
[1] | 989.15 | 984.45 | 979.73 | – | – | – | 1412 | 0.988 | 0.913 | 0.854
[2] | – | – | – | 1.5137 | 1.5113 | 1.5088 | – | – | – | –

COc1ccccc1 [anisole] + CC(C)O
Conditions | mass density, 298.15 K [kg/m3] | mass density, 303.15 K [kg/m3] | mass density, 308.15 K [kg/m3] | refractive index, 298.15 K | refractive index, 303.15 K | refractive index, 308.15 K | speed of sound, 298.15 K [m/s] | viscosity, 298.15 K [mPa·s] | viscosity, 303.15 K [mPa·s] | viscosity, 308.15 K [mPa·s]
[1], x1 = 0.0964 | 809.04 | 804.55 | 799.99 | – | – | – | 1168 | 1.526 | 1.335 | 1.178
[1], x1 = 0.1995 | 836.66 | 832.04 | 827.34 | – | – | – | 1195 | 1.236 | 1.101 | 0.988
[1], x1 = 0.2995 | 861.3 | 856.56 | 851.78 | – | – | – | 1223 | 1.111 | 1 | 0.906
[1], x1 = 0.3965 | 882.77 | 877.97 | 873.12 | – | – | – | 1250 | 1.019 | 0.923 | 0.838
[1], x1 = 0.4947 | 903.09 | 898.25 | 893.38 | – | – | – | 1277 | 0.959 | 0.872 | 0.798
[1], x1 = 0.5932 | 921.89 | 917.04 | 912.14 | – | – | – | 1304 | 0.942 | 0.864 | 0.792
[1], x1 = 0.6966 | 940.52 | 935.67 | 930.78 | – | – | – | 1331 | 0.91 | 0.837 | 0.775
[1], x1 = 0.8069 | 958.9 | 954.07 | 949.22 | – | – | – | 1358 | 0.879 | 0.81 | 0.742
[1], x1 = 0.9052 | 974.58 | 969.52 | 965.01 | – | – | – | 1384 | 0.847 | 0.783 | 0.72
[1], x1 = 1 | 989.15 | 984.45 | 979.73 | – | – | – | 1412 | 0.988 | 0.913 | 0.854
[2], x1 = 0.0964 | – | – | – | 1.3925 | 1.3901 | 1.3879 | – | – | – | –
[2], x1 = 0.1995 | – | – | – | 1.4115 | 1.4075 | 1.4064 | – | – | – | –
[2], x1 = 0.2995 | – | – | – | 1.4275 | 1.4244 | 1.4226 | – | – | – | –
[2], x1 = 0.3965 | – | – | – | 1.4427 | 1.4399 | 1.438 | – | – | – | –
[2], x1 = 0.4947 | – | – | – | 1.4571 | 1.4535 | 1.451 | – | – | – | –
[2], x1 = 0.5932 | – | – | – | 1.4701 | 1.467 | 1.465 | – | – | – | –
[2], x1 = 0.6966 | – | – | – | 1.482 | 1.4793 | 1.4763 | – | – | – | –
[2], x1 = 0.8069 | – | – | – | 1.495 | 1.4923 | 1.4884 | – | – | – | –
[2], x1 = 0.9052 | – | – | – | 1.5049 | 1.5018 | 1.4999 | – | – | – | –
[2], x1 = 1 | – | – | – | 1.5137 | 1.5113 | 1.5088 | – | – | – | –
